# Assay results taken from patent publication US20050288247A1, “Inducible inactivation of synaptic transmission” (Cold Spring Harbor Laboratory, priority 2004, published 2005).
# Key:
# [1] = system: synaptic transmission in acute cortical brain slices; assay: Whole cell EPSC measurements in layer 2 pyramidal neurons in acute brain slices; assay type: cell-based, mice
# Source text: We further characterized CID-dependent inactivation of synaptic transmission using whole cell measurements of EPSC in layer (L) 2 pyramidal neurons in acute brain slices. MIST constructs were introduced into L 3 cells in vivo using in utero viral vector mediated gene delivery (VAMP/Syb MIST) or electroporation (Sph-StxTM MIST). Synaptic transmission was evoked with an extracellular stimulation electrode placed in a band of transfected/infected neurons, below (within 200 μm) the recording pipette.
# Cortical brain slices (300 μm thick) were prepared from young mice (postnatal day 9-14) using a vibrating-blade microtome (VT1000S, Leica Microsystems). Chilled cutting solution contained 110 mM choline chloride, 25 mM NaHCO3, 25 mM D-glucose, 11.6 mM sodium ascorbate, 7 mM MgSO4, 3.1 mM sodium pyruvate, 2.5 mM KCl, 1.25 mM NaH2PO4, and 0.5 mM CaCl2. Slices were then transferred to artificial cerebrospinal fluid (“ACSF”) containing 127 mM NaCl, 25 mM NaHCO3, 25 mM D-glucose, 2.5 mM KCl, 2 mM MgCl2,1 mM CaCl2, and 1.25 mM NaH2PO4, aerated with 95% O2/5% CO2. Slices in ACSF were first incubated at 34° C. for 0.5 hr, then maintained at room temperature prior to use. For recordings, ACSF contained 4 mM MgCl2, 4 mM CaCl2 and […] CPP.
# Neurons were visualized with infrared differential interference contrast optics, and patched using borosilicate electrodes (resistances, 4-7 MΩ). Access resistances were in the range 10-30 MΩ. Intracellular solution contained 120 mM CsMeSO3, 20 mM CsCl, 4 mM NaCl, 10 mM HEPES, 10 mM BAPTA, 4 mM Mg2ATP, and 0.3 mM Na2GTP, 14 mM sodium phosphocreatine, 3 mM ascorbate, and 0.1 Alexa-594 (Molecular Probes); pH was adjusted to 7.25 with CsOH. Excitatory currents were measured at a holding potential of −65 mV, close to reversal for fast inhibition. MIST-expressing neurons were stimulated with tungsten bipolar electrode in the middle of transfected region, and monosynaptic responses were recorded from cells within […]. Responses were amplified (Multiclamp, Axon Instruments), filtered at 1 kHz, and digitized at 10 kHz. […]
# [2] = system: synaptic transmission of cortical neurons in cultured brain slices; assay: Evoked EPSCs in cultured brain slices infected with adenovirus-based VAMP MIST construct; assay type: cell-based
# Source text: We first tested the VAMP MIST construct in cultured brain slices. The adenovirus-based VAMP MIST construct was used to infect cortical neurons in cultured brain slices. Synaptic transmission was evoked with extracellular stimulation.
molecule,measurement,setting,value
CC[C@H](C(=O)N1CCCCC1C(=O)O[C@H](CCc1ccc(OC)c(OC)c1)c1cccc(OCC(=O)NCCCN(C)C)c1)c1cc(OC)c(OC)c(OC)c1 (some centres unmarked) [AP21998],recovery of synaptic response with reverser,"[1]; excess of monomeric reverser, 5 μM AP21998",rapid partial recovery
same,recovery of monosynaptic EPSC and network discharge,[2]; 200 nM AP21998 reverser after homodimerizer,rapid recovery
CC[C@H](C(=O)N1CCCC[C@H]1C(=O)O[C@H](CCc1ccc(OC)c(OC)c1)c1cccc(OCC(=O)NCC(CNC(=O)COc2cccc([C@@H](CCc3ccc(OC)c(OC)c3)OC(=O)[C@@H]3CCCCN3C(=O)[C@@H](CC)c3cc(OC)c(OC)c(OC)c3)c2)CN(C)C)c1)c1cc(OC)c(OC)c(OC)c1 [AP20187],amplitude of monosynaptic EPSCs,"[1]; bath application 100 nM AP20187, VAMP/Syb MIST",rapid decrease
same,amplitudes of monosynaptic EPSC and network discharge,"[2]; 20 nM AP20187 in DMSO added to the bath, VAMP MIST infected slices",rapid decrease
AP21967,amplitude of monosynaptic EPSCs,"[1]; bath application 500 nM AP21967, Sph-StxTM MIST",rapid decrease
